This is an account of results in patent US20040116420A1 (priority 2001, published 2004).

For one data set, the system named is Vero cells. Briefly: Cytotoxicity, Vero cells, Alamar Blue. In kind it is cell-based. The following applies: 25 μM, 20 hours. In outline: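 Overnight-seeded Vero cells were exposed to 25 μM compound in 2% FBS-DMEM for 20 h at 37 °C, 5% CO2. Alamar Blue was then added for about 6 h. The absorbance ratio relative to compound-free control gave the living-cell ratio.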
For orientation: Resazurin is reduced to fluorescent resorufin, in cell work by metabolically active cells.

The target of the next data set is T1, HSV-1 protease (Human herpesvirus 1, UniProt P10210).
T1 construct: 6xHis (N); made in house; host or cells: baculovirus expression system
T1 sequence (P10210 1-247): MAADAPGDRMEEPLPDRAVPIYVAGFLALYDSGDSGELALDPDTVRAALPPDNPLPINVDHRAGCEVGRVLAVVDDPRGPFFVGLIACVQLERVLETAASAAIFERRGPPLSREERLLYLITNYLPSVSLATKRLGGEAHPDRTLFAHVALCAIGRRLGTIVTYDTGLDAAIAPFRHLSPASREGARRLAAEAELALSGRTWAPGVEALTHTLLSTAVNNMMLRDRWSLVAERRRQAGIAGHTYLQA
Briefly: Enzymatic assay for HSV-1 protease (assembly) inhibitor, fluorescence polarization. In kind it is biochemical. The following applies: read-out: HSV-1 Enzyme inhibition IC50. In outline:
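His6-tagged HSV-1 UL26 protease, baculovirus-expressed, preincubated 30 min at RT with compound in 1 M citrate/phosphate buffer pH 7.4 with 20% glycerol and 2 mM TCEP. A biotin-HTYLQA*SERFRIK-DTAF substrate was then cleaved for 60 min at RT, stopped with avidin, and read by fluorescence polarization versus no-inhibitor control.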
For orientation: Polarisation of emitted light reports the rotation of a fluorescent probe.

The next data set relates to HSV-1. The experiment in a line: Antiviral activity, HSV-1 in Vero cells, plaque method. In kind it is cell-based. As to conditions: Human alphaherpesvirus 1, 20 hours, 90% inhibition of plaque formation. In outline: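 HSV-1 (50,000 pfu in 2% FBS-DMEM) was added to Vero cells and removed, then the compound was applied in 2% FBS-DMEM for 20 h at 37° C, 5% CO2. After a freeze-thaw, virus yield in the medium was titred by plaque assay. EC90 is the concentration giving 90% plaque reduction versus the compound-free control.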

Bounds are passed on as bounds.

As usually defined, the IC50 is the point on the concentration scale where inhibition reaches its midpoint. The term EC90 denotes the point of the concentration-response curve where the effect stands at 90%. Read a low EC90 as an effect from little substance. In the case of `Cc1c(NC(=O)OC(C)(C)C)ccc2nc(N[C@@H](CCc3ccccc3)C(=O)N(C)CCc3ccccn3)oc(=O)c12` [Compound No.48, (5-Methyl-2-{1S-[methyl-(2-pyridin-2-yl-ethyl)-carbamoyl]-3-phenyl-propylamino}-4-oxo-4H-benzo[d][1,3]oxazin-6-yl)-carbamic acid tert-butyl ester], the “Cell viability (% of control)” value in the data set on Vero cells is reported as 44.2%. On HSV-1 protease, the 50% inhibitory concentration (IC50) worked out at 1.2 µM. The same compound registered a 90% effect concentration (EC90) in the data set on HSV-1 of 3.7 µM.
The corresponding values for `Cc1c(NC(=O)OC(C)(C)C)ccc2nc(N3CCC[C@H]3C(=O)NCCc3ccccn3)oc(=O)c12` [Compound No.89, {5-Methyl-4-oxo-2-[2S-(2-pyridin-2-ylethylcarbamoyl)-pyrrolidin-1-yl]-4H-benzo[d][1,3]oxazin-6-yl}-carbamic acid tert-butyl ester] are 92.6%, 1.4 µM and more than 12.5 µM.
The like results for `Cc1c(NC(=O)OC(C)(C)C)ccc2nc(N(C)[C@@H](C)C(=O)NCCc3ccccn3)oc(=O)c12` [Compound No.74, (5-Methyl-2-{methyl-[1S-(2-pyridin-2-ylethylcarbamoyl)-ethyl]-amino}-4-oxo-4H-benzo[d][1,3]oxazin-6-yl)-carbamic acid tert-butyl ester] were, in that order, 95.3%, 1.5 µM and more than 12.5 µM.
Take `Cc1c(NC(=O)OC(C)(C)C)ccc2nc(N3C[C@H](OCc4ccccc4)C[C@H]3C(=O)N(C)CCc3ccncc3)oc(=O)c12` [Compound No.116, (2-{4R-Benzyloxy-2S-[methyl-(2-pyridin-4-yl-ethyl)-carbamoyl]-pyrrolidin-1-yl}-5-methyl-4-oxo-4H-benzo[d][1,3]oxazin-6-yl)-carbamic acid tert-butyl ester]: in the data set with Vero cells, the “Cell viability (% of control)” value came out at 68.2%. Also, at HSV-1 protease, the IC50 is more than 10 µM. Moreover, the 90% effect concentration (EC90) with HSV-1 came out at 6.5 µM.
With `CCCCc1ccc(C(=O)Nc2ccc3nc(NC(C)(C)C(=O)N(C)CCc4ccccn4)oc(=O)c3c2C)cc1` [Compound No.167, 4-Butyl-N-(5-methyl-2-{1-methyl-1-[methyl-(2-pyridin-2-yl-ethyl)-carbamoyl]-ethylamino}-4-oxo-4H-benzo[d][1,3]oxazin-6-yl)-benzamide], the “Cell viability (% of control)” value in the data set with Vero cells is −6.1%. Besides, the concentration for half-maximal inhibition (IC50) on HSV-1 protease was determined as 1.7 µM. For the same compound, the 90% effect concentration (EC90) in the data set on HSV-1 is 3.6 µM.
Consider `Cc1c(NC(=O)c2cccc(Cl)c2)ccc2nc(NC(C)(C)C(=O)N(C)CCc3ccccn3)oc(=O)c12` [Compound No.152, 3-Chloro-N-(5-methyl-2-{1-methyl-1-[methyl-(2-pyridin-2-yl-ethyl)-carbamoyl]-ethylamino}-4-oxo-4H-benzo[d][1,3]oxazin-6-yl)-benzamide], for which, in the data set on Vero cells, the “Cell viability (% of control)” value was 30.9%. Also, the IC50 on HSV-1 protease was determined as 1.8 µM. In the data set with HSV-1, this compound registered an EC90 of 6.3 µM.
Consider `Cc1c(NC(=O)OC(C)(C)C)ccc2nc(NC(C)(C)C(=O)NCc3ccncc3)oc(=O)c12` [Compound No.34, (5-Methyl-2-{1-methyl-1-[(pyridin-4-ylmethyl)-carbamoyl]-ethylamino}-4-oxo-4H-benzo[d][1,3]oxazin-6-yl)-carbamic acid tert-butyl ester], for which the “Cell viability (% of control)” value in the data set on Vero cells is 102.0%. Moreover, the IC50 on HSV-1 protease turned out to be 1.6 µM. In addition, in the data set with HSV-1, the EC90 is more than 25 µM.
The like results for `Cc1c(NC(=O)OC(C)(C)C)ccc2nc(N[C@@H](Cc3ccccc3)C(=O)NCc3cccnc3)oc(=O)c12` [Compound No.30, (5-Methyl-4-oxo-2-{2-phenyl-1S-[(pyridin-3-ylmethyl)-carbamoyl]-ethylamino}-4H-benzo[d][1,3]oxazin-6-yl)-carbamic acid tert-butyl ester] were, in that order, 98.6%, 0.7 µM and 23.8 µM.
The like results for `Cc1c(NC(=O)OC(C)(C)C)ccc2nc(N[C@H](C(=O)N(C)CCc3ccncc3)C(C)C)oc(=O)c12` [Compound No.53, (5-Methyl-2-{2-methyl-1S-[methyl-(2-pyridin-4-yl-ethyl)-carbamoyl]-propylamino}-4-oxo-4H-benzo[d][1,3]oxazin-6-yl)-carbamic acid tert-butyl ester] were, in that order, 106.0%, 2.7 µM and 6.1 µM.
The like results for `COc1cc(OC)cc(C(=O)Nc2ccc3nc(NC(C)(C)C(=O)N(C)CCc4ccccn4)oc(=O)c3c2C)c1` [compound 191, 3,5-Dimethoxy-N-(5-methyl-2-{1-methyl-1-[methyl-(2-pyridin-2-yl-ethyl)-carbamoyl]-ethylamino}-4-oxo-4H-benzo[d][1,3]oxazin-6-yl)-benzamide] were, in that order, 89.1%, 0.6 µM and more than 12.5 µM.
As to `Cc1c(NC(=O)c2cccc(F)c2)ccc2nc(NC(C)(C)C(=O)N(C)CCc3ccccn3)oc(=O)c12` [Compound No.148, 3-Fluoro-N-(5-methyl-2-{1-methyl-1-[methyl-(2-pyridin-2-yl-ethyl)-carbamoyl]-ethylamino}-4-oxo-4H-benzo[d][1,3]oxazin-6-yl)-benzamide], in the data set on Vero cells, the “Cell viability (% of control)” value stood at 54.6%. Besides, the IC50 on HSV-1 protease is 1.5 µM. Moreover, the 90% effect level in the data set on HSV-1 (EC90) was put at 10.3 µM.
The corresponding values for `Cc1c(NC(=O)OC(C)(C)C)ccc2nc(N[C@@H](CCc3ccccc3)C(=O)NCc3ccncc3)oc(=O)c12` [Compound No.41, (5-Methyl-4-oxo-2-{3-phenyl-1S-[(pyridin-4-ylmethyl)-carbamoyl]-propylamino}-4H-benzo[d][1,3]oxazin-6-yl)-carbamic acid tert-butyl ester] are 101.0%, 5.6 µM and more than 25 µM.
As to `Cc1c(NC(=O)c2ccc([N+](=O)[O-])cc2)ccc2nc(NC(C)(C)C(=O)N(C)CCc3ccccn3)oc(=O)c12` [Compound No.142, N-(5-Methyl-2-{1-methyl-1-[methyl-(2-pyridin-2-yl-ethyl)-carbamoyl]-ethylamino}-4-oxo-4H-benzo[d][1,3]oxazin-6-yl)-4-nitro-benzamide], the “Cell viability (% of control)” value in the data set with Vero cells stood at 61.0%. Further, the IC50 on HSV-1 protease was determined as 1.3 µM. In the data set on HSV-1, this compound registered a concentration for an effect of 90% (EC90) of 10.4 µM.
Consider `Cc1c(NC(=O)OC(C)(C)C)ccc2nc(N[C@@H](CC(C)C)C(=O)NCc3ccncc3)oc(=O)c12` [Compound No.38, (5-Methyl-2-{3-methyl-1S-[(pyridin-4-ylmethyl)-carbamoyl]-butylamino}-4-oxo-4H-benzo[d][1,3]oxazin-6-yl)-carbamic acid tert-butyl ester], for which the “Cell viability (% of control)” value with Vero cells came to 105.0%. Moreover, on HSV-1 protease, the 50% inhibitory concentration (IC50) came out at 10.1 µM. In the data set on HSV-1, the EC90 is more than 25 µM.
With `Cc1c(NC(=O)OC(C)(C)C)ccc2nc(N[C@H](C(=O)N(C)Cc3ccccn3)C(C)(C)C)oc(=O)c12` [Compound No.60, {2-[2,2-Dimethyl-1S-(methyl-pyridin-2-ylmethyl-carbamoyl)-propylamino]-5-methyl-4-oxo-4H-benzo[d][1,3]oxazin-6-yl}-carbamic acid tert-butyl ester], in the data set with Vero cells, the “Cell viability (% of control)” value was 89.6%. Further, the IC50 on HSV-1 protease came to 26.9 µM. The compound further showed a 90% effect concentration (EC90) with HSV-1 of 4.7 µM.
As to `Cc1c(NC(=O)OC(C)(C)C)ccc2nc(N(C)[C@@H](Cc3ccccc3)C(=O)NCc3cccnc3)oc(=O)c12` [Compound No.79, [5-Methyl-2-(methyl-{2-phenyl-1S-[(pyridin-3-ylmethyl)-carbamoyl]-ethyl}-amino)-4-oxo-4H-benzo[d][1,3]oxazin-6-yl]-carbamic acid tert-butyl ester], the “Cell viability (% of control)” value in the data set on Vero cells was 38.5%. On HSV-1 protease, the IC50 was 1 µM. The EC90 with HSV-1 turned out to be 6 µM.
As for `Cc1c(NC(=O)OC(C)(C)C)ccc2nc(N3Cc4ccccc4C[C@H]3C(=O)N(C)CCc3ccncc3)oc(=O)c12` [Compound No.101, (5-Methyl-2-{3S-[methyl-(2-pyridin-4-yl-ethyl)-carbamoyl]-3,4-dihydro-1H-isoquinolin-2-yl}-4-oxo-4H-benzo[d][1,3]oxazin-6-yl)-carbamic acid tert-butyl ester], in the data set with Vero cells, the “Cell viability (% of control)” value was 45.5%. The IC50 on HSV-1 protease is more than 20 µM. The concentration for an effect of 90% (EC90) in the data set on HSV-1 turned out to be 8.4 µM.
As for `Cc1c(NC(=O)OC(C)(C)C)ccc2nc(N[C@@H](CC(C)C)C(=O)NCc3ccccn3)oc(=O)c12` [Compound No.36, (5-Methyl-2-{3-methyl-1S-[(pyridin-2-ylmethyl)-carbamoyl]-butylamino}-4-oxo-4H-benzo[d][1,3]oxazin-6-yl)-carbamic acid tert-butyl ester], the “Cell viability (% of control)” value in the data set on Vero cells is recorded as 110.0%. Also, at HSV-1 protease, the IC50 is 5.8 µM. Besides, the 90% effect level with HSV-1 (EC90) was put at 21.5 µM.
The corresponding values for `Cc1c(NC(=O)OC(C)(C)C)ccc2nc(N3Cc4ccccc4C[C@H]3C(=O)NCCc3ccccn3)oc(=O)c12` [Compound No.97, {5-Methyl-4-oxo-2-[3S-(2-pyridin-2-yl-ethylcarbamoyl)-3,4-dihydro-1H-isoquinolin-2-yl]-4H-benzo[d][1,3]oxazin-6-yl}-carbamic acid tert-butyl ester] are 51.3%, 3.3 µM and 11 µM.
